In PMC11245036 (bioRxiv, 2024):

Tests used:
GluA2(Q) [1] = molecular target: T1, GluA2(Q) (Rattus norvegicus, UniProt P19491); assay: cryo-EM structure; format: binding
GluA1 = GluA1 (Rattus norvegicus, UniProt P19490); assay: whole-cell patch clamp in HEK-293 cells, -60 mV; format: cell-based
GluA2(Q) [2] = molecular target: T1, GluA2(Q); assay: cryo-EM structure with glutamate and CTZ; format: cell-based
GluA2(E) = GluA2(E) (Rattus norvegicus, UniProt P19491, Q607E); assay: whole-cell patch clamp in HEK-293 cells, -60 mV; format: cell-based
[3] = molecular target: GluA2(Q) subunit, as part of the fusion construct GluA2-γ2EM (rat) (UniProt P19491); assay: cryo-EM structure

Chain of GluA1 (P19490 19-907): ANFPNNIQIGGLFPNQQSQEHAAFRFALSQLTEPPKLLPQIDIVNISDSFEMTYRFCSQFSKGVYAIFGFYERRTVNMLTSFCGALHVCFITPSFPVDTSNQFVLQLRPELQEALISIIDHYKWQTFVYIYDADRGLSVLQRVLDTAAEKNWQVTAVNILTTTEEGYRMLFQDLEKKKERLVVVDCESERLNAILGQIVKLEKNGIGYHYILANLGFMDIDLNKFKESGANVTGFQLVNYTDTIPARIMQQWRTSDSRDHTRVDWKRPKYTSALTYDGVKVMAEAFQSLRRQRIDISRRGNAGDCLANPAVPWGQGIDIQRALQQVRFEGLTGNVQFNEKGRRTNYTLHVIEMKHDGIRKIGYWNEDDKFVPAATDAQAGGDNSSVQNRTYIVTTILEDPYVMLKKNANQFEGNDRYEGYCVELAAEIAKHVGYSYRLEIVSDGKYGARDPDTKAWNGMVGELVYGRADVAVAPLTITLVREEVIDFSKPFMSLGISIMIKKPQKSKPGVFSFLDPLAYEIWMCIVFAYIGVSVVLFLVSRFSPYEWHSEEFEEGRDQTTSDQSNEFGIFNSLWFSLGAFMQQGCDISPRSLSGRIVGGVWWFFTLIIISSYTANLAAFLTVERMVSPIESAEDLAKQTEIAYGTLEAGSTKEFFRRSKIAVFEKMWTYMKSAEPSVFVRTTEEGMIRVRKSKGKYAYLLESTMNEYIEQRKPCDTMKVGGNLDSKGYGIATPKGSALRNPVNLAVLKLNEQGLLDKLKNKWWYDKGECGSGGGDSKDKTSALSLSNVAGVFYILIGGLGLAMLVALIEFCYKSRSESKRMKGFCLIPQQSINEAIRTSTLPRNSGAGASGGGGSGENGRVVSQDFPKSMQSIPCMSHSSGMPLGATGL

For NS(=O)(=O)c1cc2c(cc1Cl)NC(C1CC3C=CC1C3)NS2(=O)=O (centres unmarked) [CTZ], the “cryo-EM structure (GluA2-γ2mem), 100 μM CTZ” value (GluA2(Q) [1]) was “Glutamate (yellow), CTZ (purple), and memantine (cyan) are shown as space filling models”.

Work on CC12CC3CC(C)(C1)CC(N)(C3)C2 [memantine] yielded an IC50 (GluA1) of 10 ± 2 µM, an IC50 (GluA2(Q) [2]) of 49 ± 2 µM and an IC50 (GluA2(E)) of 25 ± 2 µM.

With “GluA2(Q) subunit, as part of the fusion construct GluA2-γ2EM (from UniProt P19491-2 22-883) (receptor)” the stoichiometry N [3] was 4.
